According to ChEMBL document CHEMBL1139587, “Synthesis of an N-acyl sulfamate analog of luciferyl-AMP: a stable and potent inhibitor of firefly luciferase” (Bioorg Med Chem Lett, 2005):

T1: Luciferin 4-monooxygenase (Luciola lateralis, UniProt Q01158)
T1 sequence (Q01158 whole entry): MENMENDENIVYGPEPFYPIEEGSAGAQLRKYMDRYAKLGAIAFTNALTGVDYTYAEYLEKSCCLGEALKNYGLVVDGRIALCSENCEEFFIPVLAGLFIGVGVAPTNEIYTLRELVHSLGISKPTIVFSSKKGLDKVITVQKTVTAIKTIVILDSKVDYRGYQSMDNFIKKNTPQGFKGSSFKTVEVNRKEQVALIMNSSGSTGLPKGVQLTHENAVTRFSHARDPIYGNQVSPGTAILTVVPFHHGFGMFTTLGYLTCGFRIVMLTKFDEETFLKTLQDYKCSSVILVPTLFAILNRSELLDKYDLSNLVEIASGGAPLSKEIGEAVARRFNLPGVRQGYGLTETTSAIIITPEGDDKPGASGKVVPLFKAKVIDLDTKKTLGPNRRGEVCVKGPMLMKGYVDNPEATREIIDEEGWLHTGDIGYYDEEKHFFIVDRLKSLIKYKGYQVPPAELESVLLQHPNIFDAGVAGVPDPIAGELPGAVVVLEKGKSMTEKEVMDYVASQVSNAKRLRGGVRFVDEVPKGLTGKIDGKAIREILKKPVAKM

B1: Luciferin 4-monooxygenase (Luciola lateralis), Q01158 (protein)
chain: T1 sequence (Q01158 whole entry)

Columns and labels:
[1] = target: T1, Luciferin 4-monooxygenase; test: Inhibition constant against luciferase with respect to natural substrate Mg-ATP; design: species or system Aquatica lateralis
[2] = target: T1, Luciferin 4-monooxygenase; test: Inhibition constant against luciferase with respect to luciferyl-adenylate; design: species or system Aquatica lateralis
[3] = target: T1, Luciferin 4-monooxygenase; test: Inhibition constant against luciferase with respect to natural substrate luciferin; design: species or system Aquatica lateralis
[4] = substrate: Nc1ncnc2c1ncn2C1O[C@H](COP(=O)(O)OC(=O)c2csc(-c3nc4ccc(O)cc4s3)n2)[C@@H](O)[C@H]1O; test: Binding affinity against luciferase; settings: Aquatica lateralis

Molecule	Ki [1] [nM]	Ki [2] [nM]	Ki [3] [nM]	Km [4] [µM]
Nc1ncnc2c1ncn2[C@@H]1O[C@H](COS(=O)(=O)NC(=O)c2csc(-c3nc4ccc(O)cc4s3)n2)[C@@H](O)[C@H]1O	41	340	34	
B1				4.7
